Data taken from patent publication US5925678A, “Use of N-acyl derivatives of aminoalcohols in the manufacture of a medicament for practicing neuroprotective action in neuropathological states connected with excitotoxicity” (Lifegroup S.P.A., priority 1994, dated 1999).
Structures can show the parent of a compound that is named as a salt. Where two headings read alike, the source gives them in different places.

Assays:
Solubility in water = format: physicochemical
[1] = Solubility in organic solvents; format: physicochemical; conditions: for solubility: organic solvent or mixture
[2] = tested on: Granular cell cultures from mouse cerebellum exposed to Glu; assay: Neuroprotective effect against excitotoxicity of Glu in primary neuronal cultures (cell survival, MTT); format: cell-based; conditions: 24 h
Experimental: In vitro evaluation of the neuroprotective effect against excitotoxicity of Excitatory Amino Acids in primary neuronal cultures of the following compounds was carried out:
The compounds under evaluation, referred to as a, b, c, and d, were solubilized in DMSO and culture medium to obtain concentrations of 100 μM (4% DMSO) and 60 μM (3% DMSO) and added to the culture mediums according to different treatment schedules in order to determine the time-effect relationship vs. the incubation time and the exposure to the neurotoxic stimulus.
Granular cell cultures were obtained from postnatal day 8-9 mouse Balb-6 cerebellum. The cells were suspended in EBM+2 mM L-glutamine, 100 U/ml penicillin, […], 25 mM KCl and 10% fetal calf serum, plated on polylysine substrate, cultured for 8-10 days and then exposed to Glu 500 μM at room temperature for 5 min. The compounds being evaluated were added to the cultures at the same time of exposure, soon after exposure or 15 min after exposure to Glu, and cultured for 60 minutes; cultures were then washed and brought back to the original medium. The number of survived cells was evaluated by […] method (MTT) 24 hours after excitotoxic stimulation.

[3] = aqueous buffer, 50 mM phosphate buffer, pH 7.4, NaCl 0.9%, read-out: solubility in water: 50 mM phosphate buffer
[4] = dmso, read-out: solubility in DMSO
[5] = A: compound added at the same time of exposure to Glu (500 μM, 5 min), 60 μM, % of control values, average of three tests, Glu alone 44, read-out: survived cells (%), treatment A, 60 μM
[6] = C: compound added 15 min after exposure to Glu (500 μM, 5 min), 60 μM, % of control values, average of three tests, Glu alone 44, read-out: survived cells (%), treatment C, 60 μM
[7] = A: compound added at the same time of exposure to Glu (500 μM, 5 min), % of control values, average of three tests, Glu alone 40, read-out: survived cells (%), treatment A, 100 μM
[8] = B: compound added soon after exposure to Glu (500 μM, 5 min), % of control values, average of three tests, Glu alone 40, read-out: survived cells (%), treatment B, 100 μM
[9] = C: compound added 15 min after exposure to Glu (500 μM, 5 min), % of control values, average of three tests, Glu alone 40, read-out: survived cells (%), treatment C, 100 μM
[10] = n-octanol, read-out: solubility in n-octanol

For O=C(O)CCC(=O)OCCNC(=O)C=CCCCCCCCCC(=O)NCCOC(=O)CCC(=O)O [Example 8, N,N'-Bis(2-Hydroxyethyl)-Dodecenediamide Disuccinate Acid], the solubility (Solubility in water; [3]) was over 1000 µg/mL, the “solubility in water” value (Solubility in water; water) was “poorly soluble” and the solubility [1, 4] was over 10000 µg/mL.
Work on CCCCCCCCCCCCCCCC(=O)NCCOP(=O)(O)O [Example 5, N-Palmitoylethanolamide Phosphate] yielded a viability at 60 µM [2, 5] of 68%, a viability at 60 µM ([2]; B: compound added soon after exposure to Glu (500 μM, 5 min), 60 μM, % of control values, average of three tests, Glu alone 44, read-out: survived cells (%), treatment B, 60 μM) of 99% and a viability at 60 µM [2, 6] of 90%. For the same compound, the solubility (Solubility in water; [3]) was over 1000 µg/mL, the “solubility in water” value (Solubility in water; water) was “poorly soluble” and the solubility [1, 4] was over 10000 µg/mL.
N[C@@H](CCC(=O)O)C(=O)O [Glu, glutamic acid, reference compound] showed a viability at 500 µM ([2]; read-out: survived cells (%), Glu alone, 60 μM column) of 44% and a viability at 500 µM ([2]; read-out: survived cells (%), Glu alone, 100 μM column) of 40%.
For O=C(CCCCCCCC(=O)NCCO)NCCO [Example 9, N,N'-Bis-(2-Hydroxyethyl)-Nonandiamide], the viability at 100 µM [2, 7] was 68%, the viability at 100 µM [2, 8] was 92% and the viability at 100 µM [2, 9] was 87%. For the same compound, the solubility [1, 4] was over 10000 µg/mL.
In the case of CC(=O)OCCNC(=O)c1ccccc1 [Example 3, N-(2-Acetoxyethyl)-Benzoylamide], the “solubility in water” value (Solubility in water; water) is reported as “poorly soluble”, the solubility [1, 4] is reported as over 10000 µg/mL and the solubility [1, 10] is reported as over 10000 µg/mL.
In the case of CCCCCCCCCCCCCCCC(=O)NCCOC(C)=O [Example 2, N-(2-Acetoxyethyl)-Palmitoylamide], the “solubility in water” value (Solubility in water; water) is reported as “poorly soluble” and the solubility [1, 10] is reported as over 5000 µg/mL.
O=C(/C=C/CCCCCCCCC(=O)NCCOP(=O)(O)O)NCCOP(=O)(O)O [Example 6, N,N'-Bis(2-Hydroxyethyl)-Dodecenediamide Diphosphate Disodium Salt] gave a solubility (Solubility in water; water, read-out: solubility in water) of over 10000 µg/mL and a solubility ([1]; DMSO, product in acid form, read-out: solubility in DMSO (product in acid form)) of over 10000 µg/mL.
With CC(=O)OCCNC(=O)/C=C/C(=O)NCCOC(C)=O [Example 4, N,N'-Bis(2-Acetoxyethyl)-Fumaroylamide] the “solubility in water” value (Solubility in water; water) was “poorly soluble” and the solubility [1, 4] was over 10000 µg/mL.
With CCCCC/C=C\C/C=C\C/C=C\C/C=C\CCCC(=O)NCCO [Example 10, N-(2-Hydroxyethyl)-Arachidonamide] the viability at 60 µM ([2]; read-out: survived cells (%), treatment A, 60 μM) was 95%, the “solubility in water” value (Solubility in water; water) was “poorly soluble” and the solubility [1, 4] was over 10000 µg/mL. The solubility ([1]; ethanol, read-out: solubility in ethanol) was over 10000 µg/mL.
With CCCCCCCCCCCCCCCC(=O)NCCOC(=O)CCC(=O)O [Example 7, N-(2-Hydroxyethyl)-Palmitoylamide Succinate Acid] the “solubility in water” value (Solubility in water; water) was “poorly soluble”, the solubility (Solubility in water; water, as potassium salt, read-out: solubility in water as potassium salt) was over 1000 µg/mL and the solubility [1, 4] was over 5000 µg/mL.
With CCCCCCCCCCCCCCCC(=O)NCCO [Example 1, N-(2-Hydroxyethyl)-Palmitoylamide] the viability at 60 µM [2, 5] was 86%, the viability at 100 µM [2, 7] was 67% and the viability at 100 µM [2, 8] was 84%. For the same compound, the viability at 60 µM [2, 6] was 101%, the viability at 100 µM [2, 9] was 76% and the “solubility in water” value (Solubility in water; water) was “insoluble”. For the same compound, the “solubility in organic solvents” value [1] was “hot methanol, CH3 Cl, DMSO”.
